Measurements published in the supplement of paper PMC10331698.
± gives the standard deviation of the averaged measurements.

Legend:
Test in all cases: level (log10 ratio to DMSO vehicle control); higher = higher biomarker level / cell amount than vehicle control
Conditions in all cases: in DMSO
[1] = compound: OCCC(F)(F)C(F)(F)C(F)(F)C(F)(F)C(F)(F)C(F)(F)F [6:2 Fluorotelomer alcohol]
Protocol: (§1)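 BioMAP Diversity Plus panel of 12 human primary cell co-culture systems (3C, 4H, LPS, SAg, BT, BF4T, BE3C, CASM3C, HDF3CGF, KF3CT, MyoF, Mphg). Compounds were added 1 h before stimulation and left for 24 h (MyoF 48 h; BT 72 h for soluble read-outs or 6 d for IgG). Biomarkers were read by ELISA, cytotoxicity by SRB, PBMC viability and proliferation by Alamar Blue. Each well value was divided by the mean of 8 DMSO control wells on the same plate and log10 transformed; duplicate blinded samples were tested at 4 concentrations.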

Perfluoro-1-iodohexane = compound: FC(F)(F)C(F)(F)C(F)(F)C(F)(F)C(F)(F)C(F)(F)I [Perfluoro-1-iodohexane]
Protocol: as §1

[2] = compound: OCC(F)(F)OC(F)(F)C(F)(F)OC(F)(F)CO [1H,1H,8H,8H-Perfluoro-3,6-dioxaoctane-1,8-diol]
Protocol: as §1

Perfluoropropanoic acid = compound: O=C(O)C(F)(F)C(F)(F)F [Perfluoropropanoic acid]
Protocol: as §1

Perfluorobutanoic acid = compound: O=C(O)C(F)(F)C(F)(F)C(F)(F)F [Perfluorobutanoic acid]
Protocol: as §1

[3] = compound: O=C(O)C(F)(F)OC(F)(F)C(F)(F)OC(F)(F)C(=O)O [Perfluoro-3,6-dioxaoctane-1,8-dioic acid]
Protocol: as §1

[4] = compound: O=C(O)C(F)(F)C(F)(F)OC(F)(F)F [Perfluoro-3-methoxypropanoic acid]
Protocol: as §1

| Test System | level (log10) ([1]; 6700 nM) | level (log10) ([1]; 20000 nM) | level (log10) (Perfluoro-1-iodohexane; 6700 nM) | level (log10) (Perfluoro-1-iodohexane; 20000 nM) | level (log10) (Perfluoro-1-iodohexane; 60000 nM) | level (log10) ([2]; 6700 nM) | level (log10) ([2]; 20000 nM) | level (log10) ([2]; 60000 nM) | level (log10) (Perfluoropropanoic acid; 6700 nM) | level (log10) (Perfluoropropanoic acid; 20000 nM) | level (log10) (Perfluoropropanoic acid; 60000 nM) | level (log10) (Perfluorobutanoic acid; 6700 nM) | level (log10) (Perfluorobutanoic acid; 20000 nM) | level (log10) (Perfluorobutanoic acid; 60000 nM) | level (log10) ([3]; 6700 nM) | level (log10) ([3]; 20000 nM) | level (log10) ([3]; 60000 nM) | level (log10) ([4]; 6700 nM) | level (log10) ([4]; 20000 nM) | level (log10) ([4]; 60000 nM) |
| --- | --- | --- | --- | --- | --- | --- | --- | --- | --- | --- | --- | --- | --- | --- | --- | --- | --- | --- | --- | --- |
| BE3C:MMP-9 | 0.0055 ± 0.0078 | -0.0215 ± 0.022 | 0.0075 ± 0.0092 | 0.013 ± 0.0028 | 0.001 ± 0.023 | -0.0115 ± 0.028 | 0.02 ± 0.04 | -0.006 ± 0.013 | 0.0075 ± 0.025 | 0.0025 ± 0.018 | 0.0265 ± 0.012 | -0.0075 ± 0.021 | -0.007 ± 0.035 | -0.0145 ± 0.015 | -0.0115 ± 0.0078 | -0.0035 ± 0.028 | 0.0385 ± 0.00071 | 0.009 ± 0.021 | -0.002 ± 0.028 | 0.0285 ± 0.0078 |
| KF3CT:CD54/ICAM-1 | 0.011 ± 0.0057 | 0.0155 ± 0.0021 | 0.001 ± 0.0085 | 0.008 ± 0.021 | 0 ± 0.011 | -0.004 ± 0.0014 | 0.008 ± 0.03 | 0.0135 ± 0.037 | -0.0135 ± 0.0092 | -0.0015 ± 0.0021 | 0.004 ± 0.0028 | -0.005 ± 0.0028 | 0.008 ± 0.0071 | 0.016 ± 0.016 | 0 ± 0.0057 | 0.01 | 0.0065 ± 0.015 | 0.019 ± 0.0085 | 0.009 ± 0.018 | 0.009 ± 0.0071 |
| lMphg:CD106/VCAM-1 | -0.016 ± 0.0028 | -0.0155 ± 0.013 | 0.0085 ± 0.032 | -0.0035 ± 0.018 | -0.003 ± 0.0099 | -0.0355 ± 0.05 | -0.0035 ± 0.012 | -0.028 ± 0.034 | -0.008 ± 0.013 | 0.0185 ± 0.0035 | 0.023 ± 0.016 | -0.0165 ± 0.025 | -0.007 ± 0.034 | -0.0085 ± 0.022 | -0.013 ± 0.0071 | -0.0165 ± 0.0021 | -0.0165 ± 0.036 | -0.0005 ± 0.035 | -0.0035 ± 0.021 | -0.0235 ± 0.0035 |
| HDF3CGF:Collagen I | -0.036 ± 0.057 | -0.0445 ± 0.08 | -0.0285 ± 0.026 | -0.0365 ± 0.0092 | -0.045 ± 0.0071 | -0.025 ± 0.018 | -0.023 ± 0.0042 | 0.02 ± 0.092 | 0 ± 0.038 | -0.031 ± 0.1 | 0.0375 ± 0.012 | -0.022 ± 0.025 | -0.0105 ± 0.023 | 0.0175 ± 0.07 | -0.011 ± 0.068 | -0.0135 ± 0.053 | 0.0405 ± 0.015 | -0.0095 ± 0.07 | -0.0085 ± 0.052 | 0.058 ± 0.025 |
| KF3CT:PAI-I | -0.0155 ± 0.0035 | -0.0035 ± 0.011 | 0.001 ± 0.0014 | -0.0005 ± 0.005 | 0.0055 ± 0.005 | -0.015 ± 0.0028 | -0.0095 ± 0.0078 | -0.002 ± 0.0099 | 0.0095 ± 0.07 | 0.021 ± 0.0071 | -0.006 ± 0.1 | -0.0055 ± 0.0078 | -0.019 ± 0.0014 | 0 | -0.0145 ± 0.025 | -0.0125 ± 0.00071 | 0.003 ± 0.018 | -0.0035 ± 0.0021 | -0.0045 ± 0.0035 | -0.0195 ± 0.026 |
| lMphg:SRB-Mphg | -0.0055 ± 0.0064 | -0.0255 ± 0.011 | 0.002 ± 0.0057 | -0.006 ± 0.0028 | 0.0025 ± 0.029 | -0.015 ± 0.033 | 0.0175 ± 0.023 | 0.0455 ± 0.077 | -0.0375 ± 0.035 | -0.096 ± 0.057 | -0.0265 ± 0.1 | -0.059 ± 0.054 | -0.0275 ± 0.18 | 0.0175 ± 0.17 | -0.0025 ± 0.0035 | -0.009 ± 0.016 | -0.003 ± 0.0099 | -0.007 ± 0.02 | -0.0165 ± 0.019 | -0.022 ± 0.025 |
| CASM3C:SRB | 0.0075 ± 0.005 | -0.003 ± 0.0028 | 0.0035 ± 0.013 | 0.0015 ± 0.0021 | -0.0015 ± 0.016 | -0.008 ± 0.0014 | -0.003 ± 0.0042 | -0.009 ± 0.0057 | 0.0035 ± 0.00071 | -0.0015 ± 0.00071 | -0.0015 ± 0.005 | 0.0005 ± 0.0064 | -0.0055 ± 0.011 | 0.002 ± 0.0042 | 0.0035 ± 0.0021 | -0.006 ± 0.0028 | 0.0085 ± 0.005 | 0.0025 ± 0.005 | -0.0045 ± 0.005 | 0.0075 ± 0.015 |
| CASM3C:CD106/VCAM-1 | 0.0105 ± 0.018 | 0.017 ± 0.0099 | 0.003 ± 0.017 | -0.003 ± 0.025 | -0.023 ± 0.041 | 0.0125 ± 0.0078 | -0.005 ± 0.0028 | 0.0015 ± 0.0035 | 0.027 ± 0.025 | 0.0445 ± 0.052 | 0.0445 ± 0.0078 | -0.007 ± 0.016 | -0.006 ± 0.0014 | -0.039 ± 0.018 | -0.005 ± 0.0014 | -0.003 ± 0.0042 | 0.0175 ± 0.042 | -0.0155 ± 0.013 | -0.03 ± 0.0071 | 0.012 ± 0.02 |
| HDF3CGF:TIMP-2 | -0.007 ± 0.025 | 0.004 ± 0.021 | 0.017 ± 0.038 | 0.0295 ± 0.018 | 0.031 ± 0.045 | -0.002 ± 0.016 | 0.002 ± 0.0071 | -0.011 ± 0.021 | -0.0495 ± 0.028 | -0.0155 ± 0.05 | -0.037 ± 0.073 | -0.0015 ± 0.0035 | -0.0055 ± 0.015 | -0.0115 ± 0.036 | -0.0145 ± 0.035 | -0.0075 ± 0.011 | 0.001 ± 0.027 | -0.029 ± 0.047 | 0.001 ± 0.0099 | -0.01 ± 0.023 |
| HDF3CGF:CXCL9/MIG | -0.0015 ± 0.023 | 0.001 ± 0.0028 | 0 ± 0.0028 | -0.021 ± 0.0057 | -0.0325 ± 0.018 | -0.0035 ± 0.015 | -0.015 ± 0.037 | 0.0345 ± 0.067 | -0.019 ± 0.0014 | -0.01 ± 0.014 | -0.0195 ± 0.026 | -0.005 ± 0.021 | -0.014 ± 0.0028 | 0.012 ± 0.024 | -0.0185 ± 0.016 | 0.0135 ± 0.0092 | 0.0085 ± 0.005 | -0.016 ± 0.016 | 0.0155 ± 0.019 | 0.019 ± 0.0014 |
| HDF3CGF:MMP-1 | -0.0025 ± 0.00071 | 0.0015 ± 0.00071 | 0.0065 ± 0.0035 | -0.0075 ± 0.029 | -0.034 ± 0.017 | -0.0055 ± 0.0092 | -0.0115 ± 0.023 | -0.006 | -0.0065 ± 0.0064 | 0.0045 ± 0.013 | 0.0035 ± 0.015 | 0.0135 ± 0.0064 | 0.0095 ± 0.0035 | 0.021 ± 0.027 | -0.004 ± 0.013 | -0.003 ± 0.014 | -0.0025 ± 0.018 | -0.01 ± 0.011 | 0 ± 0.0071 | -0.0035 ± 0.021 |
| MyoF:bFGF | 0.0015 ± 0.005 | -0.0085 ± 0.0035 | -0.0085 ± 0.0064 | -0.002 ± 0.0042 | 0.0235 ± 0.036 | -0.001 ± 0.016 | 0.0075 ± 0.011 | 0.004 ± 0.0057 | -0.0175 ± 0.016 | 0.01 ± 0.0028 | 0.015 ± 0.038 | 0.0025 ± 0.0078 | 0.0095 ± 0.0078 | 0.0155 ± 0.0035 | 0.0075 ± 0.021 | 0.001 ± 0.0099 | 0 ± 0.018 | 0.002 ± 0.018 | -0.004 ± 0.037 | 0.0045 ± 0.025 |
| 3C:CCL2/MCP-1 | 0.008 ± 0.014 | -0.008 ± 0.0071 | -0.0105 ± 0.0021 | -0.006 ± 0.02 | 0.003 ± 0.047 | 0.0005 ± 0.018 | 0.009 ± 0.0028 | 0.0145 ± 0.05 | -0.041 ± 0.048 | -0.0145 ± 0.049 | 0.0435 ± 0.073 | 0.007 ± 0.0071 | 0.0075 ± 0.011 | 0.028 ± 0.025 | 0.002 ± 0.016 | -0.007 ± 0.023 | 0.01 ± 0.03 | -0.0125 ± 0.0064 | -0.0095 ± 0.00071 | 0.0165 ± 0.0064 |
